This is an account of results in patent US7268157B2, “Substituted arylalcanoic acid derivatives as PPAR pan agonists with potent antihyperglycemic and antihyperlipidemic activity” (Shenzhen Chipscreen Biosciences, Ltd., priority 2002, dated 2007).

One data set deals with obese rat. Nature of the data set: Blood triglyceride and cholesterol in experimental obese rats. The settings on record: 13-day treatment. The format is in vivo.
Data set [1] can be described thus: Body weight and abdomen fat weight in experimental obese rats. Type of data set: in vivo, rat. The settings on record: for Abdomen Fat Weight: 15-day treatment.

Molecules are shown by their SMILES.

Turning to `O=C(c1ccc(F)cc1)c1ccccc1NC(Cc1ccc(OCCn2c3ccccc3c3ccccc32)cc1)C(=O)O` (stereo not shown) [CS-038, 2-[(2-(4-fluorobenzoyl)phenyl)amino]-3-[4-(2-carbazolylethoxy)-phenyl]-propionic acid], the results for the Cholesterol in the data set with obese rat (4 mg/kg) and with obese rat (30 mg/kg) were 98.4 ± 29.4 mg/dL and 86.6 ± 37.7 mg/dL, respectively. Moreover, the Triglyceride was found to be 150.3 ± 52.1 mg/dL with obese rat (4 mg/kg) and 143.2 ± 61.8 mg/dL in the data set on obese rat (30 mg/kg). Also, the “Body Weight” value amounted to 591.5 ± 130.0 g in data set [1] (4 mg/kg, 0 day); 580.8 ± 130.2 g in data set [1] (4 mg/kg, 6 days); 575.2 ± 130.6 g in data set [1] (4 mg/kg, 9 days); 569.4 ± 122.9 g in data set [1] (4 mg/kg, 15 days); 580.5 ± 134.9 g in data set [1] (30 mg/kg, 0 day); 586.1 ± 143.2 g in data set [1] (30 mg/kg, 6 days). Also, the “Body Weight” value in data set [1] (30 mg/kg, 9 days) is listed as 586.5 ± 144.2 g; in data set [1] (30 mg/kg, 15 days), 578.3 ± 176.8 g. Further, the “Abdomen Fat Weight” value was determined as 55.8 ± 16.8 g in data set [1] (4 mg/kg) and 56.6 ± 21.1 g in data set [1] (30 mg/kg). In data set [1] (after 15-day drug treatment), the “body weight and abdomen fat increases” value was “does not induce body weight and abdomen fat increases”.

Turning to `CN(CCOc1ccc(CC2SC(=O)NC2=O)cc1)c1ccccn1` (stereo not shown) [Rosiglitazone, reference compound], in the data set with obese rat (4 mg/kg), the Cholesterol was found to be 112.7 ± 25.5 mg/dL. In the data set on obese rat (4 mg/kg), this compound yielded a Triglyceride of 273.3 ± 87.4 mg/dL. The “Body Weight” value in data set [1] (4 mg/kg, 0 day) amounted to 594.9 ± 169.3 g; in data set [1] (4 mg/kg, 6 days), 604.5 ± 181.4 g; in data set [1] (4 mg/kg, 9 days), 601.6 ± 183.9 g; in data set [1] (4 mg/kg, 15 days), 596.4 ± 176.8 g. In addition, the “Abdomen Fat Weight” value in data set [1] (4 mg/kg) was determined as 63.1 ± 31.4 g.
